“And” between values parts separate entries of the source, which are not always exact repeats. Equal entries are not always repeated. Toxic doses and inconclusive results are not listed. How the source made its calls: active means survival T/C of 150% or more; inactive means T/C below 125% in these data.
Test system: CD2F1 mice, L1210 leukemia ip, survival T/C
Experiment: NCI In Vivo Anticancer Drug Screen. Data for tumor model L1210 Leukemia (intraperitoneal) in CD2F1 (CDF1) mice
Conditions: endpoint: mean survival time, higher = longer survival
In short: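 Tumor-bearing mice (transplanted tumor) were split into treated and vehicle control groups, and the measured endpoint of each treated group was divided by that of its vehicle controls.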

[1] = dose: 6.25 mg/kg/injection, schedule: Q04DX003 (ip), vehicle: saline with Tween-80
[2] = dose: 12.5 mg/kg/injection, schedule: Q01DX001 (ip), vehicle: saline with Tween-80
[3] = dose: 25.0 mg/kg/injection, schedule: Q01DX001 (ip), vehicle: saline with Tween-80
[4] = dose: 25.0 mg/kg/injection, schedule: Q04DX002 (ip), vehicle: saline with Tween-80
[5] = dose: 50.0 mg/kg/injection, schedule: Q04DX002 (ip), vehicle: saline with Tween-80
[6] = dose: 100.0 mg/kg/injection, schedule: Q04DX002 (ip), vehicle: saline with Tween-80
[7] = dose: 100.0 mg/kg/injection, schedule: Q01DX001 (ip), vehicle: saline with Tween-80
[8] = dose: 100.0 mg/kg/injection, schedule: Q01DX009 (ip), vehicle: saline with Tween-80
[9] = dose: 200.0 mg/kg/injection, schedule: Q01DX001 (ip), vehicle: saline with Tween-80
[10] = dose: 200.0 mg/kg/injection, schedule: Q01DX009 (ip), vehicle: saline with Tween-80
[11] = dose: 400.0 mg/kg/injection, schedule: Q01DX001 (ip), vehicle: saline with Tween-80
[12] = dose: 400.0 mg/kg/injection, schedule: Q01DX009 (ip), vehicle: saline with Tween-80
[13] = dose: 50.0 mg/kg/injection, schedule: Q01DX009 (ip), vehicle: saline with Tween-80
[14] = dose: 100.0 mg/kg/injection, schedule: Q04DX003 (ip), vehicle: saline with Tween-80
[15] = dose: 100.0 mg/kg/injection, schedule: Q01DX001 (ip), vehicle: saline
[16] = dose: 200.0 mg/kg/injection, schedule: Q01DX001 (ip), vehicle: saline
[17] = dose: 200.0 mg/kg/injection, schedule: Q04DX003 (ip), vehicle: saline with Tween-80
[18] = dose: 400.0 mg/kg/injection, schedule: Q04DX003 (ip), vehicle: saline with Tween-80

Measured: T/C

CC(C)CP(=O)(CC(C)C)CC(C)C
inactive: dose: 1.56 mg/kg/injection, schedule: Q04DX003 (ip), vehicle: saline with Tween-80 98 % of control | dose: 3.13 mg/kg/injection, schedule: Q04DX003 (ip), vehicle: saline with Tween-80 98 % of control | [1] 101 % of control

CCC(C)OP(=S)(S)OC(C)CC.[Zn+2] (stereo unspecified)
inactive: dose: 0.75 mg/kg/injection, schedule: Q01DX009 (ip), vehicle: saline with Tween-80 88 % of control and 90 % of control | dose: 1.5 mg/kg/injection, schedule: Q01DX009 (ip), vehicle: saline with Tween-80 103 % of control | dose: 3.0 mg/kg/injection, schedule: Q01DX009 (ip), vehicle: saline with Tween-80 88 % of control and 92 % of control | dose: 3.13 mg/kg/injection, schedule: Q01DX009 (ip), vehicle: saline with Tween-80 86 % of control and 88 % of control | [1] 93 % of control | [2] 101 % of control | dose: 12.5 mg/kg/injection, schedule: Q04DX003 (ip), vehicle: saline with Tween-80 95 % of control | [3] 100 % of control | [4] 94 % of control and 100 % of control | dose: 25.0 mg/kg/injection, schedule: Q04DX003 (ip), vehicle: saline with Tween-80 97 % of control | [5] 120 % of control and 94 % of control

COc1ccc(C(C)O)cc1 (stereo unspecified)
inactive: [6] 104 % of control | dose: 200.0 mg/kg/injection, schedule: Q04DX002 (ip), vehicle: saline with Tween-80 93 % of control | dose: 400.0 mg/kg/injection, schedule: Q04DX002 (ip), vehicle: saline with Tween-80 97 % of control

Nc1csc(N)n1
inactive: dose: 37.5 mg/kg/injection, schedule: Q01DX009 (ip), vehicle: saline 98 % of control | dose: 75.0 mg/kg/injection, schedule: Q01DX009 (ip), vehicle: saline 98 % of control | dose: 150.0 mg/kg/injection, schedule: Q01DX009 (ip), vehicle: saline 98 % of control

NC(Cc1cccc(NP(=S)(N2CC2)N2CC2)c1)C(=O)O (stereo unspecified)
inactive: dose: 100.0 mg/kg/injection, schedule: Q01DX009 (ip), vehicle: saline 119 % of control | dose: 100.0 mg/kg/injection, schedule: Q04DX003 (ip), vehicle: saline 113 % of control | dose: 200.0 mg/kg/injection, schedule: Q01DX009 (ip), vehicle: saline 100 % of control

O=C(OC1CC2CCC1C2Cl)c1ccc2ccccc2c1 (stereo unspecified)
inactive: [7] 93 % of control | [8] 91 % of control | [9] 89 % of control | [10] 93 % of control | [11] 95 % of control | [12] 95 % of control

NC(=S)N/N=C/c1ccc([N+](=O)[O-])cc1
inactive: dose: 75.0 mg/kg/injection, schedule: Q01DX001 (ip), vehicle: saline with Tween-80 95 % of control

CC(C)Cc1ccc(OC(=O)Nc2ccc(Cl)cc2)cc1
inactive: dose: 25.0 mg/kg/injection, schedule: Q01DX009 (ip), vehicle: saline with Tween-80 106 % of control | [13] 94 % of control | [8] 95 % of control | [14] 86 % of control

CC1(C#N)CCC(=O)N1 (stereo unspecified)
inactive: [15] 95 % of control | [16] 95 % of control | dose: 400.0 mg/kg/injection, schedule: Q01DX001 (ip), vehicle: saline 93 % of control

O=C(O)CNC(=O)C(Br)Cc1ccccc1 (stereo unspecified)
inactive: [14] 101 % of control | [17] 101 % of control | [18] 103 % of control

CC1CCCC(C)N1c1ccc(NC(=O)c2ccc(C(=O)Nc3ccc(N4C(C)CCCC4C)cc3)cc2)cc1 (stereo unspecified)
inactive: [15] 86 % of control

CCOC1CC(C)C=CO1 (stereo unspecified)
inactive: dose: 100.0 mg/kg/injection, schedule: Q01DX001 (ip), vehicle: saline + alcohol 108 % of control | dose: 200.0 mg/kg/injection, schedule: Q01DX001 (ip), vehicle: saline + alcohol 104 % of control | dose: 400.0 mg/kg/injection, schedule: Q01DX001 (ip), vehicle: saline + alcohol 96 % of control

Cc1cc(Cl)ccc1NC(=O)OCCOc1ccc([N+](=O)[O-])cc1
inactive: [13] 96 % of control | [8] 96 % of control | [10] 100 % of control

Cc1ccc(N2CC(O)CSC2=Nc2ccccc2)cc1 (stereo unspecified)
inactive: dose: 100.0 mg/kg/injection, schedule: Q01DX001 (ip), vehicle: Klucel (hydroxypropylcellulose) (HPC) 93 % of control | dose: 200.0 mg/kg/injection, schedule: Q01DX001 (ip), vehicle: Klucel (hydroxypropylcellulose) (HPC) 91 % of control | dose: 400.0 mg/kg/injection, schedule: Q01DX001 (ip), vehicle: Klucel (hydroxypropylcellulose) (HPC) 91 % of control

CCCC(=O)Nc1ccc(O)cc1
inactive: dose: 50.0 mg/kg/injection, schedule: Q01DX009 (ip), vehicle: Klucel (hydroxypropylcellulose) (HPC) 95 % of control | dose: 100.0 mg/kg/injection, schedule: Q01DX009 (ip), vehicle: Klucel (hydroxypropylcellulose) (HPC) 91 % of control | dose: 200.0 mg/kg/injection, schedule: Q01DX009 (ip), vehicle: Klucel (hydroxypropylcellulose) (HPC) 104 % of control | dose: 400.0 mg/kg/injection, schedule: Q01DX009 (ip), vehicle: Klucel (hydroxypropylcellulose) (HPC) 123 % of control

Nc1cc(OCc2ccccc2)c2n[nH]nc2n1
inactive: dose: 25.0 mg/kg/injection, schedule: Q01DX005 (ip), vehicle: other 96 % of control | dose: 50.0 mg/kg/injection, schedule: Q01DX005 (ip), vehicle: other 92 % of control | dose: 200.0 mg/kg/injection, schedule: Q01DX005 (ip), vehicle: other 94 % of control | dose: 400.0 mg/kg/injection, schedule: Q01DX005 (ip), vehicle: other 105 % of control

CC1CCC2(OC1)OC1C(O)C3C4CCC5CC(OC6OC(CO)C(OC7OC(CO)C(O)C(OC8OCC(O)C(O)C8O)C7OC7OC(CO)C(O)C(OC8OC(CO)C(O)C(O)C8O)C7O)C(O)C6O)C(O)CC5(C)C4CCC3(C)C1C2C (stereo unspecified)
inactive: dose: 5.0 mg/kg/injection, schedule: Q01DX009 (ip), vehicle: saline 92 % of control | dose: 6.25 mg/kg/injection, schedule: Q01DX001 (ip), vehicle: saline with Tween-80 96 % of control | dose: 10.0 mg/kg/injection, schedule: Q01DX009 (ip), vehicle: saline 93 % of control | [2] 103 % of control | dose: 20.0 mg/kg/injection, schedule: Q01DX009 (ip), vehicle: saline 96 % of control | [3] 100 % of control | dose: 40.0 mg/kg/injection, schedule: Q01DX009 (ip), vehicle: saline 102 % of control

CC(C)NCCO
inactive: dose: 75.0 mg/kg/injection, schedule: Q01DX001 (ip), vehicle: saline 98 % of control | [15] 97 % of control | dose: 150.0 mg/kg/injection, schedule: Q01DX001 (ip), vehicle: saline 100 % of control | [16] 97 % of control

Cc1c(OCc2ccccc2)cccc1[N+](=O)[O-]
inactive: dose: 100.0 mg/kg/injection, schedule: Q01DX009 (ip), vehicle: other 97 % of control | [14] 92 % of control | dose: 200.0 mg/kg/injection, schedule: Q01DX009 (ip), vehicle: other 105 % of control | [17] 87 % of control | dose: 400.0 mg/kg/injection, schedule: Q01DX009 (ip), vehicle: other 112 % of control | [18] 90 % of control

O=C(O)c1cc(-c2ccc(F)cc2)nc2ccc(F)cc12
inactive: [14] 101 % of control | [17] 97 % of control

CN(C)c1ccc(/C=[N+](\[O-])c2ccccc2)cc1
inactive: [13] 92 % of control | [8] 103 % of control | [10] 100 % of control

Cc1occc1S(N)(=O)=O
inactive: dose: 75.0 mg/kg/injection, schedule: Q04DX002 (ip), vehicle: saline with Tween-80 120 % of control

CCCCCCCCC(=O)N1CCN(C(=O)CCCCCCCC)C1
inactive: dose: 75.0 mg/kg/injection, schedule: Q04DX003 (ip), vehicle: saline 94 % of control | dose: 150.0 mg/kg/injection, schedule: Q04DX003 (ip), vehicle: saline 97 % of control | dose: 300.0 mg/kg/injection, schedule: Q04DX003 (ip), vehicle: saline 95 % of control

CCOc1ccccc1C=C(C#N)C#N
inactive: [4] 96 % of control | [5] 96 % of control | [6] 93 % of control

O=[N+]([O-])c1ccc2c([N+](=O)[O-])cc(O)cc2c1
inactive: [7] 95 % of control | [8] 96 % of control | [9] 105 % of control | [10] 96 % of control | [11] 100 % of control | [12] 98 % of control

Nc1ncnc(N)c1NC(=O)c1ccc(Cl)c([N+](=O)[O-])c1
inactive: [14] 94 % of control | [17] 93 % of control | [18] 88 % of control
